EC50 data for 31 compounds are collected here from US8912336B2, “Aryl and heteroaryl sulfones as mGluR4 allosteric potentiators, compositions, and methods of treating neurological dysfunction” (Vanderbilt University, priority 2009, dated 2014).

In the assay the target is T1, human mGluR4 (Homo sapiens, UniProt Q14833).
T1 construct: expressed in transfected cells; host or cells: Chinese Hamster Ovary (CHO) cells
Description: Potentiation of human mGluR4 in transfected CHO cells, Ca2+-sensitive fluorescent dye, EC20 agonist. The conditions noted are these: values in E-notation, unit inferred, read-out: hEC50. The assay is classed as cell-based. On the procedure: The disclosed compounds and compositions can be evaluated for their ability to act as a potentiator of metabotropic glutamate receptor activity, in particular mGluR4 activity, by any suitable known methodology known in the art. For example, Chinese Hamster Ovary (CHO) cells transfected with human mGluR4 or HEK cells co-transfected with rat mGluR4 and the G-protein regulated Inwardly Rectifying Potassium channel (GIRK) were plated in clear bottom assay plates for assay in a Hamamatsu FDSS Fluorometric Plate Reader. The cells were loaded with either a Ca2+-sensitive fluorescent dye or the thallium responsive dye and the plates were washed and placed into a suitable kinetic plate reader. For human mGluR4 assays, a fluorescence baseline was established for 3-5 seconds, the disclosed compounds were then added to the cells, and the response in cells was measured. Approximately two and a half minutes later, a concentration of mGluR4 orthosteric agonist (e.g. glutamate or L-AP4) eliciting approximately 20% (EC20) of the maximal agonist response was added to the cells, and the response was measured. Two minutes later, a concentration of mGluR4 agonist (e.g. glutamate or L-AP4) eliciting 80% (EC80) of the maximal agonist response was added to the cells, and the response was measured. For rat mGluR4/GIRK experiments, a baseline was established for approximately five seconds, disclosed compounds were added, and either an EC20 or EC80 concentration of agonist was added approximately two and one half minutes later.
The above described assay operated in two modes. In the first mode, a range of concentrations of the disclosed compounds are added to cells, followed by a single fixed concentration of agonist. If the compound acts as a potentiatior, an EC50 value for potentiation and a maximum extent of potentiation by the compound at this concentration of agonist is determined by non-linear curve fitting. If the compound acts as a noncompetitive antagonist, an IC50 value is determined by non-linear curve fitting. In the second mode, several fixed concentrations of the disclosed compounds are added to various wells on a plate, followed by a range in concentrations of agonist for each concentration of disclosed compound. The EC50 values for the agonist at each concentration of compound are determined by non-linear curve fitting. A decrease in the EC50 value of the agonist with increasing concentrations of the sample compound (a leftward shift of the agonist concentration-response curve) is an indication of the degree of mGluR4 potentiation at a given concentration of the sample compound. A decrease in the maximal response of the agonist with increasing concentrations of the sample compounds, with or without a rightward shift in agonist potency, is an indication of the degree of noncompetitive antagonism at mGluR4. The second mode also indicates whether the sample compounds also affect the maximum response to mGluR4 to agonists.

T1 sequence (Q14833 33-912): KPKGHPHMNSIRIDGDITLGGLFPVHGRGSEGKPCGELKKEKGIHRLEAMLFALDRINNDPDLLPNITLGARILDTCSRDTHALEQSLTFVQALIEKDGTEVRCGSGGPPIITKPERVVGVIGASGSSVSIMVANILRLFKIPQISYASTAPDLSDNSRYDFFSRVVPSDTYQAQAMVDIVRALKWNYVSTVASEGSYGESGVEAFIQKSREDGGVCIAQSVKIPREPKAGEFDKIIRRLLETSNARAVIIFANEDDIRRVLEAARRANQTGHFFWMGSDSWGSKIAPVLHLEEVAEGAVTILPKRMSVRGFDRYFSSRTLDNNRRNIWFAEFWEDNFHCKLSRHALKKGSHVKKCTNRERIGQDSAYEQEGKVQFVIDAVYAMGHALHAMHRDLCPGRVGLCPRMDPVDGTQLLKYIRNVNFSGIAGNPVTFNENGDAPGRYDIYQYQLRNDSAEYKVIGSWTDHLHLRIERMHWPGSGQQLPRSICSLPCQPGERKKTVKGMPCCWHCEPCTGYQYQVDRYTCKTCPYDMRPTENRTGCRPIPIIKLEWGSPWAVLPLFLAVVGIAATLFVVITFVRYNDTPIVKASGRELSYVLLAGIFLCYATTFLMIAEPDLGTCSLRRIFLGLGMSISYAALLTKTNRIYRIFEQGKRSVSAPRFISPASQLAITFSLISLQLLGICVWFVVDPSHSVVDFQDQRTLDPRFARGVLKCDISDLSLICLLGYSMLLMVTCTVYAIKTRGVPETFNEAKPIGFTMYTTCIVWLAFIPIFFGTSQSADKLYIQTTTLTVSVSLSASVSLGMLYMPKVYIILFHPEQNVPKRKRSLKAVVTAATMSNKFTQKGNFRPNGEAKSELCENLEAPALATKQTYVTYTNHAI

For `O=C(Nc1ccc(S(=O)(=O)Cc2ccccc2Cl)cc1)c1cccc(Cl)n1` [Example 30, 6-chloro-N-(4-((2-chlorobenzyl)sulfonyl)phenyl)picolinamide], the EC50 was found to be 1.1 µM. To `O=S(=O)(Cc1cc(F)ccc1F)c1ccc2[nH]c(-c3ccccn3)nc2c1` [Example 7, 5-((2,5-difluorobenzyl)sulfonyl)-2-(pyridin-2-yl)-1H-benzo[d]imidazole] belongs 0.434 µM. Consider `O=S(=O)(Cc1ccccc1Cl)c1ccc2[nH]c(-c3cccc(F)n3)nc2c1` [Example 15, 5-((2-chlorobenzyl)sulfonyl)-2-(6-fluoropyridin-2-yl)-1H-benzo[d]imidazole], for which the EC50 amounted to 0.927 µM. To `O=S(=O)(Cc1ccccc1Cl)c1ccc2[nH]c(-c3ccccn3)nc2c1` [Example 2, 5-(2-Chlorobenzylsulfonyl)-2-(pyridin-2-yl)-1H-benzo[d]imidazole] belongs 0.421 µM.

In the case of `Cc1cccc(C(=O)Nc2ccc(S(=O)(=O)Cc3ccccc3Cl)cc2)n1` [Example 32, N-(4-((2-chlorobenzyl)sulfonyl)phenyl)-6-methylpicolinamide], the EC50 is 5.4 µM. `O=C(Nc1ccc(S(=O)(=O)Cc2ccccc2Cl)cc1)c1ncccc1F` [Example 31, N-(4-((2-chlorobenzyl)sulfonyl)phenyl)-3-fluoropicolinamide]: the EC50 was found to be 0.73 µM. `Clc1ccccc1CSc1ccc2[nH]c(-c3ccccn3)nc2c1` [Example 1, 5-(2-Chlorobenzylthio)-2-(pyridin-2-yl)-1H-benzo[d]imidazole]: the EC50 stood at 2.48 µM. To `O=S(=O)(Cc1ccccc1Cl)c1ccc2[nH]c(-c3ncc(F)cc3F)nc2c1` [Example 14, 5-((2-chlorobenzyl)sulfonyl)-2-(3,5-difluoropyridin-2-yl)-1H-benzo[d]imidazole] belongs 0.45 µM; to `O=S(=O)(Cc1ccccc1Cl)c1ccc2[nH]c(-c3cccc(Cl)n3)nc2c1` [Example 11, 5-((2-chlorobenzyl)sulfonyl)-2-(6-chloropyridin-2-yl)-1H-benzo[d]imidazole], 0.0754 µM.

In the case of `O=S(=O)(Cc1ccccc1Cl)c1ccc2[nH]c(-c3nccs3)nc2c1` [Example 12, 2-(5-((2-chlorobenzyl)sulfonyl)-1H-benzo[d]imidazol-2-yl)thiazole], the EC50 turned out to be 1.45 µM. As for `O=S(=O)(Cc1c(F)cccc1Cl)c1cc2nc(-c3ccccn3)[nH]c2cc1Cl` [Example 24, 6-chloro-5-((2-chloro-6-fluorobenzyl)sulfonyl)-2-(pyridin-2-yl)-1H-benzo[d]imidazole], the EC50 is 0.112 µM. Then `O=S(=O)(Cc1ccc(Cl)cc1Cl)c1ccc2[nH]c(-c3ccccn3)nc2c1` [Example 6, 5-((2,4-dichlorobenzyl)sulfonyl)-2-(pyridin-2-yl)-1H-benzo[d]imidazole], with 0.0568 µM; and `O=C(Nc1ccc(S(=O)(=O)Cc2ccccc2Cl)cc1)c1ccccn1` [Example 27, N-(4-((2-chlorobenzyl)sulfonyl)phenyl)picolinamide], with 0.237 µM; and `O=S(=O)(Cc1cccc(Cl)c1F)c1ccc2[nH]c(-c3ccccn3)nc2c1` [Example 21, 5-((3-chloro-2-fluorobenzyl)sulfonyl)-2-(pyridin-2-yl)-1H-benzo[d]imidazole], with 0.194 µM. For `O=S(=O)(Cc1ccc(Cl)cc1Cl)c1cc2nc(-c3ccccn3)[nH]c2cc1Cl` [Example 23, 6-chloro-5-((2,4-dichlorobenzyl)sulfonyl)-2-(pyridin-2-yl)-1H-benzo[d]imidazole], the EC50 was 1.52 µM. Then `O=S(=O)(Cc1cc(F)c(F)cc1F)c1ccc2[nH]c(-c3ccccn3)nc2c1` [Example 10, 2-(pyridin-2-yl)-5-((2,4,5-trifluorobenzyl)sulfonyl)-1H-benzo[d]imidazole], with 0.462 µM; and `O=S(=O)(Cc1ccc(Cl)cc1F)c1cc2nc(-c3ccccn3)[nH]c2cc1Cl` [Example 26, 6-chloro-5-((4-chloro-2-fluorobenzyl)sulfonyl)-2-(pyridin-2-yl)-1H-benzo[d]imidazole], with 0.446 µM; and `O=S(=O)(Cc1ccccc1F)c1ccc2[nH]c(-c3ccccn3)nc2c1` [Example 4, 5-((2-fluorobenzyl)sulfonyl)-2-(pyridin-2-yl)-1H-benzo[d]imidazole], with 0.33 µM. Then `O=S(=O)(Cc1ccc(Cl)cc1F)c1ccc2[nH]c(-c3cccc[n+]3O)nc2c1` [Example 18, 2-(5-((4-chloro-2-fluorobenzyl)sulfonyl)-1H-benzo[d]imidazol-2-yl)-1-hydroxypyridin-1-ium], with 0.272 µM; and `O=S(=O)(Cc1ccccc1Cl)c1cc2nc(-c3ccccn3)[nH]c2cc1Cl` [Example 5, 6-chloro-5-((2-chlorobenzyl)sulfonyl)-2-(pyridin-2-yl)-1H-benzo[d]imidazole], with 0.35 µM; and `O=S(=O)(Cc1ccccc1Cl)c1ccc2[nH]c(-c3cscn3)nc2c1` [Example 13, 4-(5-((2-chlorobenzyl)sulfonyl)-1H-benzo[d]imidazol-2-yl)thiazole], with 1.84 µM.

On to `O=S(=O)(Cc1ccc(Cl)cc1F)c1ccc2[nH]c(-c3ccccn3)nc2c1` [Example 19, 5-((4-chloro-2-fluorobenzyl)sulfonyl)-2-(pyridin-2-yl)-1H-benzo[d]imidazole], for which the EC50 is 0.0823 µM. In the case of `O=S(=O)(Cc1ccccc1Cl)c1ccc2[nH]c(-c3ncccc3F)nc2c1` [Example 16, 5-((2-chlorobenzyl)sulfonyl)-2-(3-fluoropyridin-2-yl)-1H-benzo[d]imidazole], the EC50 came to 0.221 µM.

For `O=S(=O)(Cc1c(F)cccc1F)c1ccc2[nH]c(-c3ccccn3)nc2c1` [Example 9, 5-((2,6-difluorobenzyl)sulfonyl)-2-(pyridin-2-yl)-1H-benzo[d]imidazole], the EC50 was found to be 0.155 µM. Regarding `O=S(=O)(Cc1ccccc1Cl)c1cc2nc(-c3ccccn3)[nH]c2cc1F` [Example 25, 5-((2-chlorobenzyl)sulfonyl)-6-fluoro-2-(pyridin-2-yl)-1H-benzo[d]imidazole], the EC50 stood at 0.341 µM. To `O=S(=O)(Cc1cccc(Cl)c1F)c1ccc2[nH]c(-c3cccc[n+]3O)nc2c1` [Example 20, 2-(5-((3-chloro-2-fluorobenzyl)sulfonyl)-1H-benzo[d]imidazol-2-yl)-1-hydroxypyridin-1-ium] belongs 1.06 µM. To `[O-][S+](Cc1ccccc1Cl)c1cc2nc(-c3ccccn3)[nH]c2cc1Cl` (stereo not shown) [Example 17, 6-chloro-5-((2-chlorobenzyl)sulfinyl)-2-(pyridin-2-yl)-1H-benzo[d]imidazole] belongs 2.41 µM. Then `O=S(=O)(Cc1c(F)cccc1Cl)c1ccc2[nH]c(-c3ccccn3)nc2c1` [Example 22, 5-((2-chloro-6-fluorobenzyl)sulfonyl)-2-(pyridin-2-yl)-1H-benzo[d]imidazole], with 0.0553 µM.

With `Fc1ccccc1CSc1ccc2[nH]c(-c3ccccn3)nc2c1` [Example 3, 5-((2-fluorobenzyl)thio)-2-(pyridin-2-yl)-1H-benzo[d]imidazole], the EC50 was found to be 2.45 µM. To `O=S(=O)(Cc1ccc(F)cc1F)c1ccc2[nH]c(-c3ccccn3)nc2c1` [Example 8, 5-((2,4-difluorobenzyl)sulfonyl)-2-(pyridin-2-yl)-1H-benzo[d]imidazole] belongs 0.209 µM.

Consider `O=C(Nc1ccc(S(=O)(=O)Cc2ccccc2Cl)cc1)c1ccco1` [Example 28, N-(4-((2-chlorobenzyl)sulfonyl)phenyl)furan-2-carboxamide], for which the EC50 stood at 0.427 µM.
